Reference: PMC11212047, “Merging Flow Synthesis and Enzymatic Maturation to Expand the Chemical Space of Lasso Peptides” (Journal of the American Chemical Society, 2024)
Where no end group is shown, it is not given here.

Test system: Salmonella enterica serotype Enteritidis
Experiment: Spot-on-lawn antimicrobial activity assay
Format: cell-based
Conditions: spot-on-lawn on M63 soft agar, 37 °C overnight; dried maturation assay in MeOH (41.7 µM if full conversion, 5 µL; Tyr9 derivatives also 69.5 µM, 8 µL); halo diameters
Protocol: We next evaluated all lasso peptides and their corresponding branched-cyclic peptides for antimicrobial activity in spot-on-lawn assays against Salmonella enterica serotype Enteritidis.[42] […] Moreover, steric constraints in the tight binding pocket are a limiting factor for Tyr-9 substitutions.
4.3 Antimicrobial activity assay against Salmonella strain
The antimicrobial activity assay of MccJ25-derivatives was performed against the indicative strain Salmonella enterica serotype Enteritidis.
4.3.1 Preparation of M63 agar
For M63 agar plates (20 g agar/L): KH2PO4 (3 g/L), K2HPO4 (7 g/L), (NH4)2SO4 (2 g/L), Casamino acids (1 g/L) were dissolved in 900 mL water. Agar (20 g/L) was added, and the suspension was filled up to 1 L and autoclaved (121 °C for 20 min). […]
The indicative strain is freshly streaked on a LB agar plate and incubated at 37 °C overnight. […] The plates were inspected for bacterial growth and possible halos were measured. […]
Fig. S77: Antimicrobial activity test using spot-on-lawn assays with dried m aturation assay dissolved in 30 µL MeOH: (A) Peptides analyzed after maturation assay. (B) Photos of spot -on-lawn assays and measured halo diameters to evaluate trends in activity. The peptide with three D-amino acids was analyzed on a different date, ther efore, diameter of control C (MccJ25) . […]

| Substance | antimicrobial activity of enzymatically matured lasso peptides (in words) |
| --- | --- |
| microcin J25 (GGAGHVPEYFVGIGTPISFYG; lactam (positions not given here); also: lasso peptide: isopeptide ring closure, ring positions not given here; UniProt Q9X2V7 38-58, looked up) [1′, native lasso peptide (21 AA), matured from WT-McjA, reference compound] | activities were only observed |
| 9′: His-12 MccJ25 mutant (His-12, Phe-13, Ile-15), L-His (GGAGHVPEYFVHFGIPISFYG; ends and bridges not checked; also: lasso peptide: isopeptide ring closure, ring positions not given here; UniProt Q9X2V7 38-58, looked up, variant G12H I13F T15I) | slightly stronger activity |
